Experimental data as given in BindingDB's records for patent US11433071 (Incyte Corporation; Incyte Holdings Corporation, 2022).

molecular target: T1, Phosphatidylinositol 4,5-bisphosphate 3-kinase catalytic subunit delta isoform (Homo sapiens, UniProt O00329); assay: PI3Kδ Scintillation Proximity Assay
T1 sequence (O00329 whole entry): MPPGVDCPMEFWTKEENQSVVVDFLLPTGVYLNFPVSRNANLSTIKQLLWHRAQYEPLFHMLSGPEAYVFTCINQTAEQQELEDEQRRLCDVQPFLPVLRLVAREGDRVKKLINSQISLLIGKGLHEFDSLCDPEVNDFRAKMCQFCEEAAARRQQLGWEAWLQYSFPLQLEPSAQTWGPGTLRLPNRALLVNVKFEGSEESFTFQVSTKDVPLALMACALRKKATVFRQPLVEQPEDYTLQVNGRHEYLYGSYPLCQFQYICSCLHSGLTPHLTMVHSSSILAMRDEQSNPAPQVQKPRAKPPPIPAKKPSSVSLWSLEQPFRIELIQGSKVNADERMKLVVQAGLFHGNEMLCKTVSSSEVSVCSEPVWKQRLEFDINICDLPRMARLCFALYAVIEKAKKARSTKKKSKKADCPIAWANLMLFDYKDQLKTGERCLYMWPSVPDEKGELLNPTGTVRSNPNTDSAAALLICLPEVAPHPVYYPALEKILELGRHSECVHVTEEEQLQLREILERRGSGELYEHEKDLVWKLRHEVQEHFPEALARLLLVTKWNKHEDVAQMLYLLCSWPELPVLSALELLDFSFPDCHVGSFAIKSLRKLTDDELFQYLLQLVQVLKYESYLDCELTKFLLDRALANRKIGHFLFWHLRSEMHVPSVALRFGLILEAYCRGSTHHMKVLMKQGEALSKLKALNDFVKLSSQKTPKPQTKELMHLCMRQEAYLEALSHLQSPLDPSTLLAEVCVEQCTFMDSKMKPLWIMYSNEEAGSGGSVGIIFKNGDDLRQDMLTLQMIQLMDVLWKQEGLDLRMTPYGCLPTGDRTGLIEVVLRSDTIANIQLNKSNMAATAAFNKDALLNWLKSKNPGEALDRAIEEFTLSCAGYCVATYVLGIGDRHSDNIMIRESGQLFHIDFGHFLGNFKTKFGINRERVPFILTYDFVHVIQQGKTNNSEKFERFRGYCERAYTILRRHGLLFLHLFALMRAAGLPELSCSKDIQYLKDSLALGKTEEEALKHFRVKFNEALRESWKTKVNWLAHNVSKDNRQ
Description: The kinase reaction was conducted in polystyrene 384-well matrix white plate from Thermo Fisher Scientific in a final volume of 25 μL. Inhibitors were first diluted serially in DMSO and added to the plate wells before the addition of other reaction components. The final concentration of DMSO in the assay was 0.5%. The PI3K assays were carried out at room temperature in 20 mM MOPS, pH 6.7, 10 mM MgCl2, 5 mM DTT and CHAPS 0.03%. Reactions were initiated by the addition of ATP, the final reaction mixture consisted of 20 μM PIP2, 20 μM ATP, 0.2 μCi [γ-33P] ATP, 4 nM PI3Kδ. […] 25 mM EDTA, 400 µM ATP. The final concentration of SPA beads was 1.0 mg/mL. After the plate sealing, plates were shaken overnight at room temperature and centrifuged at 1800 rpm for 10 minutes, the radioactivity of the product was determined by scintillation counting on Topcount (Perkin-Elmer).

SMILES	IC50 [nM]
CCOc1c(C(C)n2nc(C)c3c(N)ncnc32)cc(Cl)c(C#N)c1C1CN(c2cncc(C#N)c2)C1 (stereo unspecified) [US11433071, Example 330]	< 10
CCOc1c(C(C)n2nc(C)c3c(N)ncnc32)cc(Cl)c(C#N)c1C1CN(c2cncc(C(=O)N(C)C)c2)C1 (stereo unspecified) [US11433071, Example 331]	< 10
CCOc1c(C(C)n2nc(C)c3c(N)ncnc32)cc(Cl)c(C#N)c1C1CN(c2ccnc(C(=O)N(C)C)c2)C1 (stereo unspecified) [US11433071, Example 334]	< 10
CCOc1c(C(C)n2nc(C)c3c(N)ncnc32)cc(C)c(C#N)c1C1CN(c2cncc(S(C)(=O)=O)c2)C1 (stereo unspecified) [US11433071, Example 335]	< 10
CCOc1c(C(C)n2nc(C)c3c(N)ncnc32)cc(Cl)c(C#N)c1C1CN(c2ccc(-c3nnn(C)n3)nc2)C1 (stereo unspecified) [US11433071, Example 336]	< 10
CCOc1c(C(C)n2nc(C)c3c(N)ncnc32)cc(Cl)c(C#N)c1C1CN(c2ccc(-c3cnn(C)n3)nc2)C1 (stereo unspecified) [US11433071, Example 337]	< 10
CCOc1c(C(C)n2nc(C)c3c(N)ncnc32)cc(Cl)c(C#N)c1C1CN(N2CC(COC)C2)C1 (stereo unspecified) [US11433071, Example 341]	< 10
CCOc1c(C(C)n2nc(C)c3c(N)ncnc32)cc(Cl)c(C#N)c1C1CN(N2CC(C#N)C2)C1 (stereo unspecified) [US11433071, Example 342]	< 10
CCOc1c(C(C)n2nc(C)c3c(N)ncnc32)cc(C)c(C#N)c1C1CN(c2cnn(C)c2)C1 (stereo unspecified) [US11433071, Example 343]	< 10
COc1c([C@H](C)n2cc(C)c(=O)c3c(N)ncnc32)cc(Cl)c(C)c1-c1ccc(C[C@@H](C)O)nc1 [US11433071, Example 362]	< 10

molecular target: T1, Phosphatidylinositol 4,5-bisphosphate 3-kinase catalytic subunit delta isoform; assay: PI3K Enzyme Assay
Description: Materials: Lipid kinase substrate, phosphoinositol-4,5-bisphosphate (PIP2), are purchased from Echelon Biosciences (Salt Lake City, Utah). PI3K isoforms α, β, δ and γ are purchased from Millipore (Bedford, Mass.). ATP, MgCl2, DTT, EDTA, MOPS and CHAPS are purchased from Sigma-Aldrich (St. Louis, Mo.).The kinase reaction are conducted in clear-bottom 96-well plate from Thermo Fisher Scientific in a final volume of 24 μL. Inhibitors are first diluted serially in DMSO and added to the plate wells before the addition of other reaction components. The final concentration of DMSO in the assay is 0.5%. The PI3K assays are carried out at room temperature in 20 mM MOPS, pH 6.7, 10 mM MgCl2, 5 mM DTT and CHAPS 0.03%. The reaction mixture is prepared containing 50 μM PIP2, kinase and varying concentration of inhibitors. Reactions are initiated by the addition of ATP containing 2.2 μCi [γ-33P]ATP to a final concentration of 1000 μM. The final concentration of PI3K isoforms α, β, δ and γ in the assay were 1.3, 9.4, 2.9 and 10.8 nM, respectively. Reactions are incubated for 180 minutes and terminated by the addition of 100 μL of 1 M potassium phosphate pH 8.0, 30 mM EDTA quench buffer. […] After the plate sealing, the radioactivity of the product is determined by scintillation counting on Topcount (Perkin-Elmer). […]

SMILES	IC50 [nM]
COc1c([C@@H](C)n2cc(C)c(=O)c3c(N)ncnc32)cc(Cl)c(C)c1-c1ccc(C[C@H](C)O)nc1 [US11433071, Example 361]	> 500
